Patent US7238697B2, “Pyridylpyrimidines for use as pesticides” (Bayer CropScience AG, priority 2001, dated 2007)
Where two headings read alike, the source gives them in different places.

Experiment: log P determination by HPLC (reversed-phase C18), EEC Directive 79/831 Annex V.A8
Assay type: physicochemical
Conditions: pH 2.3, HPLC, reversed-phase C 18, 43° C., 0.1% aqueous phosphoric acid/acetonitrile, read-out: log P (pH 2.3)
Protocol: The stated log P values were determined in accordance with EEC Directive 79/831 Annex V.A8 by HPLC (High Performance Liquid Chromatography) using a reversed-phase column, (C 18). Temperature: 43° C. Mobile phases for the determination in the acidic range: 0.1% aqueous phosphoric acid, acetonitrile; linear gradient from 10% acetonitrile to 90% acetonitrile. Calibration was carried out using unbranched alkan-2-ones (having 3 to 16 carbon atoms) with known logP values (determination of the logP values by the retention times using linear interpolation between two successive alkanones).

| chromatographic logP (reversed-phase C18 HPLC column) | Compound | chromatographic logP |
| --- | --- | --- |
| 2.29 | N#CCCCCOC(=O)CSc1nccc(-c2ccccn2)n1 [Example 95] |  |
| 3.18 | CC(C)=CCOC(=O)CSc1nccc(-c2ccccn2)n1 [Example 96] |  |
| 2.34 | CCOCCOC(=O)CSc1nccc(-c2ccccn2)n1 [Example 98] |  |
| 1.04 | O=C(CSc1nccc(-c2ccccn2)n1)OCCN1CCCCC1 [Example 99] |  |
| 3.07 | CCCCOC(=O)CSc1nccc(-c2ccccn2)n1 [Example 100] |  |
| 2.81 | COC(=O)CSc1nc(-c2ccccn2)cc(-c2ccccn2)n1 [Example 101] |  |
| 2.2 | CCOC(=O)CSc1nccc(-c2cc(C)ccn2)n1 [Example 102] |  |
| 1.8 | COC(=O)CSc1nccc(-c2cc(C)ccn2)n1 [Example 103] |  |
| 3.67 | CCOC(=O)CSc1nccc(-c2cccc(OCC)n2)n1 [Example 104] |  |
| 2.46 | CCOC(=O)CSc1nccc(-c2cccc(C)n2)n1 [Example 105] |  |
| 3.01 | COC(=O)CSc1nc(-c2ccccn2)cc(-c2ccco2)n1 [Example 106] |  |
| 3.5 | COC(=O)CSc1nc(-c2ccc(OC)cc2)cc(-c2ccccn2)n1 [Example 107] |  |
| 0.89 | COC(=O)C[S+]([O-])c1nccc(-c2ccccn2)n1 (centres unmarked) [Example 108] |  |
| 3.57 | COC(=O)CSc1nc(-c2ccccc2)cc(-c2ccccn2)n1 [Example 109] |  |
| 1.13 | O=C(CSc1nccc(-c2ccccn2)n1)OCCCN1CCCCC1 [Example 110] |  |
| 3.19 | CCOC(=O)CSc1nccc(-c2cccc(Cl)n2)n1 [Example 111] |  |
| 3.11 | COC(=O)CSc1nc(-c2ccccn2)cc(C(C)C)n1 [Example 112] |  |
| 2.55 | CCOC(=O)C(F)Sc1nccc(-c2ccccn2)n1 (centres unmarked) [Example 113] |  |
| 3.34 | COC(=O)CSc1nc(-c2ccccn2)cc(C(F)(F)F)n1 [Example 114] |  |
| 3.3 | CCOC(=S)CSc1nccc(-c2ccccn2)n1 [Example 115] |  |
| 2.25 | O=C(CSc1nccc(-c2ccccn2)n1)OCC(F)F [Example 116] |  |
| 2.69 | O=C(CSc1nccc(-c2ccccn2)n1)OCC(F)(F)F [Example 117] |  |

| chromatographic logP (reversed-phase C18 HPLC column) | Compound | chromatographic logP |
| --- | --- | --- |
| 3.24 | O=C(CSc1nccc(-c2ccccn2)n1)OCC(F)(F)C(F)(F)F [Example 118] |  |
|  | O=C(CSc1nccc(-c2ccccn2)n1)OCC(F)(F)C(F)(F)C(F)(F)F [Example 119] | 3.37 |
| 3.59 | O=C(CSc1nccc(-c2ccccn2)n1)OC(C(F)(F)F)C(F)(F)F [Example 120] |  |
| 3.06 | CC(OC(=O)CSc1nccc(-c2ccccn2)n1)C(F)(F)F (centres unmarked) [Example 121] |  |
| 2.26 | O=C(CSc1nccc(-c2ccccn2)n1)OCCC(F)(F)F [Example 122] |  |
| 2.78 | O=C(CSc1nccc(-c2ccccn2)n1)OCC(Cl)Cl [Example 123] |  |
| 2.31 | O=C(CSc1nccc(-c2ccccn2)n1)OCc1ccc(Cl)nc1 [Example 124] |  |
| 3.31 | O=C(CSc1nccc(-c2ccccn2)n1)OCC(Cl)(Cl)Cl [Example 125] |  |
| 2.29 | O=C(CSc1nccc(-c2ccccn2)n1)OCCCl [Example 126] |  |
| 1.76 | O=C(CSc1nccc(-c2ccccn2)n1)OC1COCOC1 [Example 127] |  |
| 2.5 | CCOC(=O)CSc1nccc(-c2ccc(C)cn2)n1 [Example 128] |  |
| 2.51 | CC(C)(C)C(=O)OCCNC(=O)NCCCOC(=O)CSc1nccc(-c2ccccn2)n1 [Example 129] |  |
| 3.51 | CC(C)(C)c1ccc(NC(=O)NCCCOC(=O)CSc2nccc(-c3ccccn3)n2)cc1 [Example 130] |  |
| 3.45 | CC(C)COC(=O)c1cccc(NC(=O)NCCCOC(=O)CSc2nccc(-c3ccccn3)n2)c1 [Example 131] |  |
| 3.06 | O=C(NCCCOC(=O)CSc1nccc(-c2ccccn2)n1)Nc1cccc2c1CCCC2 [Example 133] |  |
| 0.43 | NNC(=O)CSc1nccc(-c2ccccn2)n1 [Example 134] |  |
| 2.23 | O=C(CSc1nccc(-c2ccccn2)n1)N/N=C/c1ccc([N+](=O)[O-])cc1 [Example 135] |  |
| 0.44 | CC(C)=NNC(=O)CSc1nccc(-c2ccccn2)n1 [Example 136] |  |
| 3.22 | O=C(CSc1nccc(-c2ccccn2)n1)NCc1cc(C(F)(F)F)cc(C(F)(F)F)c1 [Example 137] |  |
| 2.92 | O=C(CSc1nccc(-c2ccccn2)n1)NCc1ccccc1SC(F)(F)F [Example 138] |  |
| 3.2 | O=C(NCCCOC(=O)CSc1nccc(-c2ccccn2)n1)Nc1ccc(Cl)cc1Cl [Example 139] |  |
| 1.13 | CS(=O)(=O)NC(=O)CSc1nccc(-c2ccccn2)n1 [Example 140] |  |

| chromatographic logP (reversed-phase C18 HPLC column) | Compound | chromatographic logP |
| --- | --- | --- |
| 2.63 | CC(C)(C)OC(=O)NCCOC(=O)CSc1nccc(-c2ccccn2)n1 [Example 141] |  |
| 2.79 | CC(C)(C)OC(=O)NCCCOC(=O)CSc1nccc(-c2ccccn2)n1 [Example 142] |  |
| 2.3 | N#Cc1ccc(NC(=O)NCCOC(=O)CSc2nccc(-c3ccccn3)n2)cc1 [Example 146] |  |
| 3.04 | O=C(NCCOC(=O)CSc1nccc(-c2ccccn2)n1)Nc1ccc(C(F)(F)F)cc1 [Example 147] |  |
| 3.35 | CC(C)(C)c1ccc(NC(=O)NCCOC(=O)CSc2nccc(-c3ccccn3)n2)cc1 [Example 148] |  |
| 3.01 | CC(C)COC(=O)c1cccc(NC(=O)NCCOC(=O)CSc2nccc(-c3ccccn3)n2)c1 [Example 149] |  |
| 4.95 | CCOC(=O)c1cc(NC(=O)NCCOC(=O)CSc2nccc(-c3ccccn3)n2)ccc1Cl [Example 150] |  |
| 2.94 | O=C(NCCOC(=O)CSc1nccc(-c2ccccn2)n1)Nc1cccc2c1CCCC2 [Example 151] |  |
| 2.45 | N#Cc1ccc(NC(=O)NCCCOC(=O)CSc2nccc(-c3ccccn3)n2)cc1 [Example 152] |  |
| 3.2 | O=C(NCCCOC(=O)CSc1nccc(-c2ccccn2)n1)Nc1ccc(C(F)(F)F)cc1 [Example 153] |  |
| 3.6 | O=C(CSc1nccc(-c2ccccn2)n1)OCC1CCCC1 [Example 154] |  |
| 1.98 | CC1(COC(=O)CSc2nccc(-c3ccccn3)n2)COC1 [Example 158] |  |
| 4 | O=C(CSc1nccc(-c2ccccn2)n1)OCC1CCCCC1 [Example 159] |  |
| 1.59 | O=C(CSc1nccc(-c2ccccn2)n1)OCCN1CCNC1=S [Example 160] |  |
| 1.16 | CC(CN1CCOCC1)OC(=O)CSc1nccc(-c2ccccn2)n1 (centres unmarked) [Example 161] |  |
| 1.11 | NC(=O)COC(=O)CSc1nccc(-c2ccccn2)n1 [Example 163] |  |
| 2.05 | COC(COC(=O)CSc1nccc(-c2ccccn2)n1)OC [Example 164] |  |
| 1.64 | O=C(CSc1nccc(-c2ccccn2)n1)OCCCN1CCCC1=O [Example 165] |  |
| 3.48 | C=CC(C)(C)COC(=O)CSc1nccc(-c2ccccn2)n1 [Example 168] |  |
| 1.79 | CCNC(=S)NCCOC(=O)CSc1nccc(-c2ccccn2)n1 [Example 172] |  |
| 1.67 | O=C(CSc1nccc(-c2ccccn2)n1)OC1CS(=O)(=O)C1 [Example 173] |  |
